Results from US12419306B2, “Mesostigmata mite control composition” (MEIJI SEIKA PHARMA CO., LTD., priority 2018, dated 2025).

Legend:
Format in all cases: in vivo
[1] = test system: red mites (Dermanyssus gallinae); experiment: Test Example 1: Control Effect 1 on Red Mites, Pasteur pipette contact test, 72 hours; conditions: for Ratio of dead and affected mites: 72 hours, unfed adult red mites
From the text: The tip of a Pasteur pipette was sealed with Parafilm, and a methanol solution of the compound A, or each pesticide (another pesticide) (single agent) described in the left columns of Tables 2, 4, and 6 described below, or a mixture (mixed agent) of the compound A and each pesticide described in the left column of Tables 2, 4, and 6 described below at a predetermined concentration was poured into the pipette through an upper portion thereof. One minute later, the Parafilm at the tip was detached, and the liquid agent was discharged. After the pipette was air dried, absorbent cotton was inserted to an upper end of the pipette, and 20 unfed adult red mites (Dermanyssus gallinae) were released into the pipette. After the tip was sealed with Hemato-Seal, the pipette was stored in the dark in an incubator at a temperature of 27 to 28° C. and a humidity of 50 to 60%. […] Then, the ratio (%) of dead and affected mites was calculated according to the following formula. The ratio (%) of dead and affected mites={(the number of dead mites+the number of affected mites)/(the number of survived mites+the number of affected mites+the number of dead mites)}×100

[2] = test system: red mites (Dermanyssus gallinae); experiment: Test Example 3: Control Effect 3 on Red Mites, Pasteur pipette contact test, 3 hours; conditions: unfed adult red mites
From the text: The tip of a Pasteur pipette was sealed with Parafilm, and a methanol solution of the compound represented by the formula (11), the compound represented by the formula (12), or flupyrimin (single agent), or a mixture (mixed agents) of the compound represented by the formula (11) or the compound represented by the formula (12) and flupyrimin at a predetermined concentration was poured into the pipette from an upper portion thereof. One minute later, the Parafilm at the tip was removed, and the liquid agent was discharged. After the pipette was air dried, absorbent cotton was inserted to an upper end of the pipette, and 20 unfed adult red mites (Dermanyssus gallinae) were released into the pipette. After the tip was sealed with Hemato-Seal, the pipette was stored in the dark in an incubator at a temperature of 27 to 28° C. and a humidity of 50 to 60%. After 3 hours had passed since the treatment, the mites were observed under a stereomicroscope to determine whether the mites were dead or alive and whether the mites were affected. Then, the ratio (%) of dead and affected mites was calculated according to the following formula. The ratio (%) of dead and affected mites={(the number of dead mites+the number of affected mites)/(the number of survived mites+the number of affected mites+the number of dead mites)}×100

[3] = test system: red mites (Dermanyssus gallinae); experiment: Test Example 2: Control Effect 2 on Red Mites, Pasteur pipette contact test, 3 hours; conditions: unfed adult red mites
Protocol: One minute later, the Parafilm at the tip was detached, and the liquid agent was discharged. […] Then, the ratio (%) of dead and affected mites was calculated according to the following formula.

[4] = Dermanyssus gallinae, 72 h, read-out: Ratio of dead and affected mites

CNC(=O)Oc1cccc2c1OC(C)(C)O2 [Bendiocarb, bendiocarb]
pest or weed control at 50 ppm [1, 4]: 30.5%

CNC(=O)Oc1cccc2ccccc12 [Carbaryl, carbaryl]
pest or weed control at 50 ppm [1, 4]: 46.6%

CC1(C)[C@H](C(=O)O[C@H](C#N)c2cccc(Oc3ccccc3)c2)[C@@H]1C=C(Br)Br [Deltamethrin, deltamethrin]
pest or weed control at 50 ppm [1, 4]: 75.8%

COP(=S)(OC)Oc1ccc([N+](=O)[O-])c(C)c1 [Fenitrothion, fenitrothion]
pest or weed control at 200 ppm [1, 4]: 71.8%

CCC(C)c1ccccc1OC(=O)NC (stereo not drawn) [Fenobucarb, fenobucarb]
pest or weed control at 50 ppm [1, 4]: 43.5%

O=C(N=c1ccccn1Cc1ccc(Cl)nc1)C(F)(F)F [Flupyrimin, flupyrimin]
Ratio of dead and affected mites ([1]; single agent 50 ppm): 65.3% | Ratio of dead and affected mites ([1]; single agent 200 ppm): 58.6% | Ratio of dead and affected mites ([1]; single agent 1000 ppm): 83.2% | Ratio of dead and affected mites ([1]; single agent 5000 ppm): 75.0% | Ratio of dead and affected mites ([2]; single agent 50 ppm): 48.8% | Ratio of dead and affected mites ([2]; single agent 200 ppm): 48.5% | Ratio of dead and affected mites ([2]; single agent 1000 ppm): 40.9%

CCc1nc2ccc(F)c(F)c2c(OC(=O)C2CC2)c1C [Formula (11)]
Ratio of dead and affected mites ([3]; single agent 5 ppm): 53.7% | Ratio of dead and affected mites ([3]; single agent 10 ppm): 53.4% | Ratio of dead and affected mites ([3]; single agent 20 ppm): 62.9% | Ratio of dead and affected mites ([2]; single agent 10 ppm): 53.4% | Ratio of dead and affected mites ([2]; single agent 20 ppm): 62.9%

CCc1nc2ccc(F)c(F)c2c(OC(=O)OC)c1C [Formula (12)]
Ratio of dead and affected mites ([3]; single agent 10 ppm): 50.0% | Ratio of dead and affected mites ([3]; single agent 20 ppm): 65.5% | Ratio of dead and affected mites ([2]; single agent 20 ppm): 65.5%

COC(=O)Oc1c(C)c(C)nc2ccc(F)c(F)c12 [Formula (13)]
Ratio of dead and affected mites ([3]; single agent 10 ppm): 89.9%

CC1(C)C(C=C(Cl)Cl)C1C(=O)OCc1cccc(Oc2ccccc2)c1 (stereo not drawn) [Permethrin, permethrin]
pest or weed control at 50 ppm [1, 4]: 49.6%

CC(C)=CC1C(C(=O)OCc2cccc(Oc3ccccc3)c2)C1(C)C (stereo not drawn) [Phenothrin, phenothrin]
pest or weed control at 500 ppm [1, 4]: 65.2%

CNC(=O)Oc1ccccc1OC(C)C [Propoxur, propoxur]
pest or weed control at 200 ppm [1, 4]: 77.9%

CC(C)=CC1C(C(=O)OCN2C(=O)C3=C(CCCC3)C2=O)C1(C)C (stereo not drawn) [Tetramethrin, tetramethrin (phthalthrin)]
pest or weed control at 10 ppm [1, 4]: 39.8%

COP(=O)(OC)C(O)C(Cl)(Cl)Cl (stereo not drawn) [Trichlorfon, trichlorfon]
pest or weed control at 200 ppm [1, 4]: 84.7%

abamectin
Ratio of dead and affected mites ([1]; single agent 50 ppm): 69.9%
